Assays:
[1] = Solubility measurement of Co-Q10 in aqueous solution (HPLC assay); assay type: physicochemical
[2] = Solubility measurement of beta-carotene in water (0.45 micron filtration, UV-Vis spectrometry); assay type: physicochemical; conditions: beta-carotene admixed in edible oil, mixed with 10 ml DI water, 0.45 micron syringe filter
Procedure: Solubility Measurement: For comparison purpose, the solubility of beta-carotene was measured both in edible oil and in the micellized product of Example 1 described above. In these measurements a suitable amount of sample is mixed with 10 ml of DI water for at least 10 minutes. The solutions are filtered through 0.45 microns syringe filter. The beta-carotene contained in the sample after this filtration is measured by UV-Vis spectrometry. […] 100% of the originally admixed beta-carotene is measured to be present in the micellized filtered sample of Example 1.

Row | Co-Q10 detected in aqueous solution [1] | beta-carotene found in the aqueous sample [2] | Structure (SMILES)
1 | no Co-Q10 detected |  | COC1=C(OC)C(=O)C(C/C=C(\C)CC/C=C(\C)CC/C=C(\C)CC/C=C(\C)CC/C=C(\C)CC/C=C(\C)CC/C=C(\C)CC/C=C(\C)CC/C=C(\C)CCC=C(C)C)=C(C)C1=O [Co-Q10 powder, ubidecarenone]
2 |  | No detectable amount | CC1=C(/C=C/C(C)=C/C=C/C(C)=C/C=C/C=C(C)/C=C/C=C(C)/C=C/C2=C(C)CCCC2(C)C)C(C)(C)CCC1 [beta-carotene]
